Measured values as given in patent publication US10004678B2, “Anti-dandruff compositions, and methods of use thereof” (LUCAS MEYER COSMETICS CANADA INC., priority 2013, dated 2018).

What was measured:
Type in all cases: cell-based
Settings in all cases: w/v concentration, 0.25% is 2.5 g (dry weight)/L
[1] = tested on: M. furfur (strain 1634.86, Pasteur Institute); assay: Malassezia species growth inhibition (MIC), M. furfur
Description: (§1) Determination of the effectiveness of the solution prepared as described in Example 1 on 3 different Malassezia species was determined by measuring the lowest concentration of a molecule for which there is no visible growth of the microorganism strain (MIC). The Malassezia species used were M. furfur (strain 1634.86, Pasteur Institute), M. globose (strain IP 2387.96, Pasteur Institute), and M. restricta (strain 7877, Centralbureau voor Schimmerlcultures). Results are presented as a w/v concentration—i.e., 0.04% is 0.4 g/L; 0.078% is 0.78 g/L, 0.156% is 1.56 g/L and 0.25% is 2.5 g (dry weight)/L.

[2] = tested on: M. globosa (strain IP 2387.96, Pasteur Institute); assay: Malassezia species growth inhibition (MIC), M. globosa
Description: as §1

[3] = tested on: M. restricta (strain 7877, Centralbureau voor Schimmerlcultures); assay: Malassezia species growth inhibition (MIC), M. restricta
Description: as §1

SMILES | MIC (lowest concentration with no visible growth) [1] [%] | MIC (lowest concentration with no visible growth) [2] [%] | MIC (lowest concentration with no visible growth) [3] [%]
Cc1cc(CC(C)CC(C)(C)C)n(O)c(=O)c1.NCCO (stereo not drawn) [Piroctone olamine] | 0.078 | 0.156 | 0.156
S=[Se]=S [Selenium disulfide] | 0.04 | 0.04 | 0.04
